For one data set, the system named is HTT mRNA. Nature of the data set: RT-qPCR splicing assay, HTT mRNA canonical (CJ) and alternative (AJ) junction. It counts as cell-based, human. The conditions noted are these: Homo sapiens; for AC50: HTT alternative junction mRNA, read-out: HTT AJ (increase in AJ mRNA, AC50). In outline:
(§1)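 Canonical and alternative-exon junction isoforms were quantified by RT-qPCR in cell lysates, with ΔCt against a housekeeper (GAPDH/GUSB/PPIA), then ΔΔCt vs DMSO, converted to 2^(−ΔΔCt) and percent response. K562 or A673 cells were exposed for 24 h to 11 concentrations (3-fold, top final 10 uM).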

The next data set deals with MYB mRNA. Briefly: RT-qPCR splicing assay, MYB mRNA canonical (CJ) and alternative (AJ) junction. The conditions noted are these: Homo sapiens; for AC50: MYB alternative junction mRNA, read-out: MYB AJ (increase in AJ mRNA, AC50). It counts as cell-based, human. In outline:
as §1
(In general: Real-time PCR tracks product formation cycle by cycle.)

In a further data set the test system is SMN2 mRNA. Nature of the data set: RT-qPCR splicing assay, SMN2 mRNA. Type of data set: cell-based, human. The conditions noted are these: Homo sapiens, canonical junction qPCR panel, Table 4; read-out: SMN2 IC50 (decrease in CJ mRNA levels). In outline:
as §1

For a further data set, the system named is MYB. Nature of the data set: HiBiT protein abundance assay, MYB (K562 HiBiT knock-in). Type of data set: cell-based, human. The conditions noted are these: HiBiT knock-in K562 cells, 24 hours, top dose 10 μM. In outline: (§2)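 Endogenously HiBiT-tagged K562 lines were treated for 24 h at 37 °C with 10-point 3-fold dilutions (top 10 μM final, DMSO ≤0.25%). Lytic LgBiT complementation luminescence was normalized between unmodified K562 (PC) and DMSO-treated tagged cells (NC); IC50 was interpolated at 50% from a four-parameter logistic fit.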
(HiBiT is a short tag that completes a luciferase, so light tracks the accessible tagged protein.)

The subject of a further data set is HTT. Briefly: HiBiT protein abundance assay, HTT (K562 HiBiT knock-in). It counts as cell-based, human. The conditions noted are these: HiBiT knock-in K562 cells, 24 hours, top dose 10 μM. In outline:
as §2

The test system of the next data set is Target C. Nature of the data set: HiBiT protein abundance assay, Target C (K562 HiBiT knock-in). Type of data set: cell-based, human. The conditions noted are these: HiBiT knock-in K562 cells, 24 hours, top dose 10 μM. In outline: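 K562 HiBiT knock-in cells (10000/well) were treated 24 h at 37° C with a 10-point 3-fold dilution series (top 10 μM final, ≤0.25% DMSO). HiBiT luminescence was read after lytic LgBiT detection. Percent response used unmodified K562 and DMSO-treated knock-in controls, and IC50 came from a four-parameter fit at 50% of untreated.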

In the next data set the test system is K562 cells. Nature of the data set: Cell Titer Glo 2.0 cell viability (toxicity) assay, K562. The conditions noted are these: 500 cells/well, 72 hours. For orientation: In ATP-based viability assays light output follows the ATP content of the culture.
The mark [1] stands for this setting: HTT canonical junction mRNA, RT-qPCR, read-out: HTT CJ (decrease in CJ mRNA levels, IC50).
[2] abbreviates: canonical junction qPCR panel, Table 4, read-out: HTT IC50 (decrease in CJ mRNA levels).
[3] abbreviates: MYB canonical junction mRNA, RT-qPCR, read-out: MYB CJ (decrease in CJ mRNA levels, IC50).
Setting [4] is: canonical junction qPCR panel, Table 4, read-out: MYB IC50 (decrease in CJ mRNA levels).

Read-outs that look alike come from different tables or passages of the source.

Consider `Cc1nc2cc(O)c(-c3ccc4nc(N5CCC(N)C5)ccc4n3)cc2o1` (stereo not drawn) [Compound 234], for which the AC50 in the data set with HTT mRNA (RT-qPCR) and with MYB mRNA (RT-qPCR) was less than 100 nM throughout. Moreover, the IC50 (commonly the midpoint of a concentration-inhibition curve) in the data set with HTT mRNA (setting [1]) was 100 to 1000 nM; in the data set on HTT mRNA (setting [2]) it was 100 to 1000 nM; with MYB mRNA (setting [3]), 100 to 1000 nM; in the data set on MYB mRNA (setting [4]), 100 to 1000 nM; with SMN2 mRNA, less than 100 nM; in the data set with MYB, less than 100 nM. Moreover, the IC50 in the data set with HTT and in the data set with Target C was less than 100 nM each time. Besides, in the data set on K562 cells, the “Effect of Exemplary Compounds on Cell Viability, K562” value (from here on “Effect of Exemplary Compounds”) is recorded as “A (A represents <100 nM)”.
Consider `Cn1cc2cc(-c3ccc4nc(N5CCC(N)C5)ccc4n3)c(O)c(F)c2n1` (stereo not drawn) [Compound 238], for which the AC50 with HTT mRNA (RT-qPCR) and in the data set on MYB mRNA (RT-qPCR) was less than 100 nM throughout. Further, the IC50 in the data set on HTT mRNA (setting [1]), in the data set on HTT mRNA (setting [2]), in the data set on MYB mRNA (setting [3]), in the data set with MYB mRNA (setting [4]), with SMN2 mRNA and in the data set with MYB was less than 100 nM throughout. Also, the IC50 in the data set with HTT and with Target C was less than 100 nM throughout. The “Effect of Exemplary Compounds” value in the data set with K562 cells is “A (A represents <100 nM)”.
Regarding `Cn1cc2cc(-c3ccc4nc(N5CC[C@@H](NCC(F)(F)F)C5)ccc4n3)c(O)cc2n1` [Compound 245], the AC50 in the data set on HTT mRNA (RT-qPCR) and with MYB mRNA (RT-qPCR) was more than 10000 nM each time. Besides, the IC50 with HTT mRNA (setting [1]) is more than 10000 nM; in the data set with HTT mRNA (setting [2]), more than 10000 nM; with MYB mRNA (setting [3]) it was more than 10000 nM; in the data set on MYB mRNA (setting [4]), more than 10000 nM; with SMN2 mRNA it was 1000 to 10000 nM; in the data set on MYB it was more than 10000 nM. The IC50 in the data set with HTT is 1000 to 10000 nM; in the data set with Target C, more than 10000 nM. Further, the “Effect of Exemplary Compounds” value in the data set on K562 cells is recorded as “D (D represents greater than 10 μM in K562 cells)”.
With `Cn1cc2cc(-c3ccc4nc(N5CC[C@@H](N[C@H]6C[C@H](F)C6)C5)ccc4n3)c(O)cc2n1` [Compound 246], the AC50 in the data set with HTT mRNA (RT-qPCR) and in the data set on MYB mRNA (RT-qPCR) was less than 100 nM throughout. Besides, the IC50 with HTT mRNA (setting [1]), with HTT mRNA (setting [2]), with MYB mRNA (setting [3]), with MYB mRNA (setting [4]), with SMN2 mRNA and in the data set on MYB was less than 100 nM throughout. Further, the IC50 with HTT and in the data set on Target C was less than 100 nM throughout. Moreover, the “Effect of Exemplary Compounds” value with K562 cells is “B (B represents 100-1000 nM)”.
As to `Cn1cc2cc(-c3ccc4nc(N5CC[C@H](N[C@H]6C[C@H](F)C6)C5)ccc4n3)c(O)cc2n1` [Compound 247], the AC50 (in general, the concentration at which the activity in the assay is half-maximal) in the data set on HTT mRNA (RT-qPCR) is 100 to 1000 nM; in the data set with MYB mRNA (RT-qPCR), less than 100 nM. Further, the IC50 is less than 100 nM in the data set with HTT mRNA (setting [1]); less than 100 nM with HTT mRNA (setting [2]); less than 100 nM with MYB mRNA (setting [3]); less than 100 nM in the data set on MYB mRNA (setting [4]); less than 100 nM in the data set with SMN2 mRNA; 100 to 1000 nM with MYB. Further, the IC50 in the data set on HTT and in the data set on Target C was 100 to 1000 nM in each case. In the data set on K562 cells, the “Effect of Exemplary Compounds” value is “B (B represents 100-1000 nM)”.
For the compound `Cc1nc2c(F)c(O)c(-c3ccc4nc(N5CC[C@@H](NC6CC6)C5)ccc4n3)cc2o1` [Compound 253], the AC50 with HTT mRNA (RT-qPCR) and in the data set on MYB mRNA (RT-qPCR) was less than 100 nM in each case. In addition, the IC50 in the data set with HTT mRNA (setting [1]), in the data set with HTT mRNA (setting [2]), in the data set with MYB mRNA (setting [3]), in the data set with MYB mRNA (setting [4]), with SMN2 mRNA and with MYB was less than 100 nM in each case. Further, the IC50 with HTT and with Target C was less than 100 nM in each case. The “Effect of Exemplary Compounds” value with K562 cells is listed as “A (A represents <100 nM)”.
Consider `Cc1nc2c(F)c(O)c(-c3ccc4nc(N5CC[C@H](NC6CC6)C5)ccc4n3)cc2o1` [Compound 254], for which the AC50 in the data set on HTT mRNA (RT-qPCR) and with MYB mRNA (RT-qPCR) was less than 100 nM throughout. Besides, the IC50 in the data set on HTT mRNA (setting [1]), with HTT mRNA (setting [2]), in the data set with MYB mRNA (setting [3]), with MYB mRNA (setting [4]), with SMN2 mRNA and in the data set with MYB was less than 100 nM in each case. Besides, the 50% inhibitory concentration (IC50) with HTT and in the data set with Target C was less than 100 nM throughout. In addition, the “Effect of Exemplary Compounds” value in the data set with K562 cells is “A (A represents <100 nM)”.
Consider `Cc1nc2c(F)c(O)c(-c3ccc4nc(N5CC[C@H](NC(C)(C)C)C5)ccc4n3)cc2o1` [Compound 255], for which the AC50 with HTT mRNA (RT-qPCR) and in the data set on MYB mRNA (RT-qPCR) was less than 100 nM in each case. In addition, the IC50 in the data set on HTT mRNA (setting [1]), with HTT mRNA (setting [2]), in the data set with MYB mRNA (setting [3]), with MYB mRNA (setting [4]), in the data set with SMN2 mRNA and with MYB was less than 100 nM in each case. Further, the IC50 in the data set with HTT and with Target C was less than 100 nM each time. In addition, the “Effect of Exemplary Compounds” value in the data set with K562 cells is listed as “A (A represents <100 nM)”.
In the case of `Cc1nc2cc(O)c(-c3ccc4nc(N5CC[C@H](NC6(C)CC6)C5)ccc4n3)cc2o1` [Compound 257], the AC50 in the data set on HTT mRNA (RT-qPCR) and with MYB mRNA (RT-qPCR) was less than 100 nM throughout. The IC50 with HTT mRNA (setting [1]), in the data set with HTT mRNA (setting [2]), with MYB mRNA (setting [3]), with MYB mRNA (setting [4]), in the data set on SMN2 mRNA and in the data set on MYB was less than 100 nM in each case. Also, the IC50 in the data set on HTT and with Target C was less than 100 nM in each case. In addition, the “Effect of Exemplary Compounds” value with K562 cells was “B (B represents 100-1000 nM)”.
For the compound `Cc1nc2cc(O)c(-c3ccc4nc(N5CC[C@@H](NC6(C)CC6)C5)ccc4n3)cc2o1` [Compound 258], the AC50 is less than 100 nM in the data set with HTT mRNA (RT-qPCR) and 100 to 1000 nM with MYB mRNA (RT-qPCR). Further, the IC50 with HTT mRNA (setting [1]) was less than 100 nM; in the data set on HTT mRNA (setting [2]) it was less than 100 nM; in the data set with MYB mRNA (setting [3]), 100 to 1000 nM; with MYB mRNA (setting [4]) it was 100 to 1000 nM; in the data set on SMN2 mRNA, less than 100 nM; in the data set with MYB it was 100 to 1000 nM. The IC50 with HTT and in the data set with Target C was 100 to 1000 nM each time. The “Effect of Exemplary Compounds” value in the data set on K562 cells is “C (C represents 1000-9999 nM)”.
Regarding `Cc1c(O)c(-c2ccc3nc(N4CC[C@@H](NC5CC5)C4)ccc3n2)cc2cn(C)nc12` [Compound 259], the AC50 with HTT mRNA (RT-qPCR) and in the data set on MYB mRNA (RT-qPCR) was less than 100 nM throughout. Further, the IC50 in the data set on HTT mRNA (setting [1]), in the data set on HTT mRNA (setting [2]), with MYB mRNA (setting [3]), in the data set on MYB mRNA (setting [4]), with SMN2 mRNA and in the data set with MYB was less than 100 nM each time. The IC50 with HTT and in the data set with Target C was less than 100 nM throughout. The “Effect of Exemplary Compounds” value in the data set with K562 cells is recorded as “B (B represents 100-1000 nM)”.
With `Cc1c(O)c(-c2ccc3nc(N4CC[C@H](NC5CC5)C4)ccc3n2)cc2cn(C)nc12` [Compound 260], the AC50 with HTT mRNA (RT-qPCR) and in the data set on MYB mRNA (RT-qPCR) was less than 100 nM each time. The 50% inhibitory concentration (IC50) in the data set with HTT mRNA (setting [1]), in the data set with HTT mRNA (setting [2]), with MYB mRNA (setting [3]), in the data set on MYB mRNA (setting [4]), in the data set with SMN2 mRNA and in the data set on MYB was less than 100 nM in each case. The IC50 in the data set with HTT and in the data set on Target C was less than 100 nM throughout. The “Effect of Exemplary Compounds” value in the data set with K562 cells is “B (B represents 100-1000 nM)”.
